Test results published in patent US20090162286A1, “Phosphodiesterase 10 Inhibition as Treatment for Obesity-Related and Metabolic Syndrome-Related Conditions” (Pfizer Inc., priority 2004, published 2009).

What was measured:
[1] = Obesity Food Intake Model - Fasted-Induced Feeding Assay; format: in vivo, rat; conditions: fasted male CD rats; for effect on food intake (fasting-induced refeeding): 10 mg/kg, given 30 minutes prior to return of food, vs vehicle-treated control; for fasting-induced refeeding, dose dependence: Compound IIA 0.1, 1, 10 mg/kg, Compound IIIA 1, 3, 10, 32 mg/kg, comparator rimonabant 3 mg/kg
Protocol: PDE10 inhibitors were also tested for efficacy in reducing the acute re-feeding response following food withdrawal. Male CD rats were fasted overnight. Rats were administered a PDE10 inhibitor (Compound IIA and IIIA in separate tests) 30 minutes prior to the return of food. Food consumption was monitored and weighed at predetermined time points and the effect of PDE10 inhibitors were compared to vehicle-treated control rats.
Compound IIA, Compound IIIA and rimonabant were tested in the fasted-induced feeding assay described above. Compound IIA was tested at 10 mg/kg, 1 mg/kg and 0.1 mg/kg; Compound IIIA was tested at 32 mg/kg, 10 mg/kg, 3 mg/kg and 1 mg/kg; and rimonabant was tested at 3 mg/kg. Both Compound IIA and Compound IIIA were efficacious at 10 mg/kg.

[2] = Body weight and food intake in diet-induced obese (DIO) mice; format: in vivo, mouse; conditions: 15 mg/kg twice daily po
Protocol: Mice were individually housed and divided into two groups: a group of control mice which remained on Purina 5001 chow; and another group which was switched to a diet composed of 45 kcal % fat (D12331 Rodent Diet, Research Diets, Inc., New Brunswick, N.J.) for the duration of the 6 week study. Food intake was measured on a 24-hour, 5 days/week cycle (Monday-Friday). Body weight was determined on Day 0 and thereafter at the same time that food intake was measured. For testing the effects of a PDE10 inhibitor on body weight and oxygen consumption, a mouse model of diet-induced obesity (DIO) was used. Obesity was induced in the mice by maintaining them on a 45% fat diet for more than 14 weeks. DIO mice were treated with Compound IVA at a dose of 15 mg/kg, administered twice daily (p.o.) for 14 days. Control mice were administered a vehicle of 0.5% methylcellulose. Measurements were made as previously described. DIO mice were treated with Compound IVA at a dose of 15 mg/kg administered twice daily (po). Control mice were administered the vehicle, 0.5% methylcellulose. […] Oxygen consumption was determined in the Compound IV and vehicle treated mice at the end of the study.

[3] = Oxygen consumption in diet-induced obese (DIO) mice; format: in vivo, mouse; conditions: 15 mg/kg twice daily po, at the end of the study, vs vehicle
Protocol: Following determination of body composition, energy expenditure and oxygen consumption were determined using an Oxymax system (Columbus Instruments, Columbus, Ohio). Mice were housed under standard laboratory conditions and maintained on the experimental diet. Mice were acclimated to sealed chambers (8″×4″×5.5″) of the calorimeter (one mouse per chamber). The chambers were placed in activity monitors. The calorimeter was calibrated before each use, airflow was adjusted to 1.6 liters/min, and the system setting and sampling times were set to 60 seconds and 15 seconds, respectively. Oxygen consumption, carbon dioxide production, and ambulatory activity were measured every 10 minutes for a period of 4 hours. For testing the effects of a PDE10 inhibitor on body weight and oxygen consumption, a mouse model of diet-induced obesity (DIO) was used. Obesity was induced in the mice by maintaining them on a 45% fat diet for more than 14 weeks. DIO mice were treated with Compound IVA at a dose of 15 mg/kg, administered twice daily (p.o.) for 14 days. Control mice were administered a vehicle of 0.5% methylcellulose. Measurements were made as previously described. DIO mice were treated with Compound IVA at a dose of 15 mg/kg administered twice daily (po). […] Oxygen consumption was determined in the Compound IV and vehicle treated mice at the end of the study.

Structure (SMILES) | effect on food intake (fasting-induced refeeding) [1] | fasting-induced refeeding, dose dependence [1] | body weight change ([2]; 14 days, vs vehicle 0.5% methylcellulose) | onset of weight loss ([2]; apparent on the 4th day) | food intake ([2]; vs vehicle 0.5% methylcellulose) | oxygen consumption [3]
COc1cc2ncnc(N3CC[C@@H](Oc4cnc5ccccc5n4)C3)c2cc1OC (stereo in doubt) [Compound IIA, 6,7-Dimethoxy-4-[3-(quinoxalin-2-yloxy)-pyrrolidin-1-yl]-quinazoline] | efficacious | reduce fasting-induced refeeding in the rats in a dose dependent fashion |  |  |  | 
COc1cc2nc(N3CCNCC3)nc(-c3ccccc3F)c2cc1OC [Compound IIIA, 4-(2-Fluorophenyl)-6,7-dimethoxy-2-piperazin-1-yl-quinazoline] | efficacious | reduce fasting-induced refeeding in the rats in a dose dependent fashion |  |  |  | 
c1ccc2nc(COc3ccc(-c4[nH]ncc4-c4ccncc4)cc3)ccc2c1 [Compound IVA, 2-[4-(4-Pyridin-4-yl-2H-pyrazol-3-yl)-phenoxymethyl]-quinoline] |  |  | led to weight loss | after three days treatment | small reduction in food intake | slight non-significant increase in oxygen consumption
